Entries after “also recorded” stand apart in the source; their conditions may differ.
Legend:
HDAC6 enzyme = target: T1, HDAC6 enzyme (Homo sapiens, UniProt Q9UBN7); assay: HDAC6 enzyme inhibitory assay (HDAC-Glo I/II Assay kit); assay type: biochemical; settings: wells without enzyme = 100% inhibition; for inhibition at 10 µM: read-out: HDAC6 inhibitory rate (%) (10 μM)
T1 construct: HDAC6 enzyme prepared by transducing full length HDAC6 gene into Sf-9 insect cells; GST; purchased SignalChem; host or cells: Sf-9 insect cells
T1 sequence (Q9UBN7 1-1215): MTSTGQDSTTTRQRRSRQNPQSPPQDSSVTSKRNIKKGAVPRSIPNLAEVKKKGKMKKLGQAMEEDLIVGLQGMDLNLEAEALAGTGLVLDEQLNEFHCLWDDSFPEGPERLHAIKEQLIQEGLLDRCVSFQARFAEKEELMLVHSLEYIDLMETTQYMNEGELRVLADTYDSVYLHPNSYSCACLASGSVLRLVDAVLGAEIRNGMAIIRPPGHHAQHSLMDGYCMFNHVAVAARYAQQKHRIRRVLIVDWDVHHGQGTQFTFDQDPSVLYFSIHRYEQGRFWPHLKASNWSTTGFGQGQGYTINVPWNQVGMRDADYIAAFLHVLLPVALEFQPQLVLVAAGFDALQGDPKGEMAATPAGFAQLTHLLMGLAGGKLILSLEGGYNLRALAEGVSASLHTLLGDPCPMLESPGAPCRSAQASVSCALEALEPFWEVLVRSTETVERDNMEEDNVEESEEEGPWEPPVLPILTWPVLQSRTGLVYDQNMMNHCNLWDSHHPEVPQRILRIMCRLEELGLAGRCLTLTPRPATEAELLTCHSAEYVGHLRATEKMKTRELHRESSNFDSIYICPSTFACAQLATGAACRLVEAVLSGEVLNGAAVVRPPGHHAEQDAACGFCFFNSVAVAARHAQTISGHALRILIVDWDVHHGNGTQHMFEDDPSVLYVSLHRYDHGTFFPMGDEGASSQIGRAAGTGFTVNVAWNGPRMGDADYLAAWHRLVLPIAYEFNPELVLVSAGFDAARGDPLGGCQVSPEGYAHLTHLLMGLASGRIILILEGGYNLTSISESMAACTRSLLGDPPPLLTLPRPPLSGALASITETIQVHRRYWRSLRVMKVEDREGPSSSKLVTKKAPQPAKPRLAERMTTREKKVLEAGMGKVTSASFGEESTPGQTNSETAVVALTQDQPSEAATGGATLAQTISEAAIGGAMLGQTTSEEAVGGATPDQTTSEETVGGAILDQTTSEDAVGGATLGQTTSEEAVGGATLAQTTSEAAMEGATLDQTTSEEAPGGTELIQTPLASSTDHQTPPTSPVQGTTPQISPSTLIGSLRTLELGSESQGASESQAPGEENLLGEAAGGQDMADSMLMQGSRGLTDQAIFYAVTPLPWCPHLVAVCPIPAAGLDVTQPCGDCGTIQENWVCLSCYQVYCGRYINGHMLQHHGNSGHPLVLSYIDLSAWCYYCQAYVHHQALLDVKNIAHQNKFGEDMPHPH
Procedure, shortened: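 Full-length GST-purified HDAC6 from Sf-9 cells preincubated with compound 60 min at room temperature in Tris-HCl pH 7.5 buffer with MgCl2, KCl, NaCl, glutathione, Tween-20. Substrate-developer reaction 20 min, luminescence read; no-enzyme wells set as 100% inhibition.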

[1] = tested on: P301S mutant human tau (4R1N) Tg mouse; assay: Cognitive improvement action in neurodegenerative disease model mouse (novel object recognition test); assay type: in vivo; settings: once a day for three months
Procedure: A drug was suspended in 0.5% methyl cellulose to prepare a suspension for administration. The suspension was repeatedly administered into six month-old male P301S mutant human tau (4R1N) Tg mouse once a day for three months, and novel object recognition test was performed by the following method. The test is comprised of memory acquisition trial of object on the first day, and memory retention trial of familiar object and novel object on the second day. Drug was administered into the mouse 1 hr before the trials on both days. For acquisition trial, The mouse was put in a test box (30 cm×30 cm×25 cm) in which two identical objects were placed, and contact frequency and contact duration with the objects for 5 min were measured under 50 lux. Herein, the contact means a behavior getting a sniff of an object (Sniffing). Next day, one of the objects was replaced with new object, and contact frequency and contact duration with each object for 5 min were measured. Novelty discrimination index (NDI) as an index of cognitive function was calculated by novel object […]/(novel object contact duration+familiar object contact duration) %. […] After F test for vehicle administration wild-type group and vehicle administration Tg group, the significant difference between the two groups was analyzed by Student t-test or Welch test (indicated as **p<0.01). […]

[2] = tested on: acetylated tubulin in mouse brain; assay: Increase in acetylated tubulin in brain (hippocampus, ELISA); assay type: in vivo; settings: male C57BL/6J mouse, oral, 4 h after administration
Source text: A drug was suspended in 0.5% methyl cellulose to prepare a suspension for administration, having a concentration shown in Table 3. The suspension was orally administered into 8 to 10-week old male C57BL/6J mouse, and after the passage of the time shown in Table 3, the brain was taken out, and hippocampus was obtained. The hippocampus was homogenized under RIPA extract (FUJIFILM Wako Pure Chemical Corporation) to which protease inhibitor (Thermo Fisher Scientific) and phosphatase inhibitor (Thermo Fisher Scientific) were added, and centrifuged in 15,000 g for 15 min to prepare a protein extract. The acetylated tubulin and total tubulin in the extract were detected by the following ELISA method. Tubulin antibody (Sigma) was immobilized on 96-well plate (Microlite2+, Thermo Fisher Scientific), and the plate was stored at 4° C. Next day, the plate was washed four times with PBS-T, and blocking buffer (1% BSA/PBS-T) was added thereto, and the reaction was carried out at 37° C. for 2 hr. The plate was washed four times with PBS-T, and the above-mentioned protein extract was added thereto to capture the tubulin on the antibody. The plate was stored at 37° C. for 2 hr, and washed four times with PBS-T. Anti-acetylated tubulin antibody or total tubulin antibody (Cell Signaling Technology), each diluted with blocking buffer, was added thereto, and the reaction was carried out at 37° C. for 1 hr. […] The plate was washed, HRP substrate was added thereto, and the luminescence was measured using a plate reader. The acetylated tubulin and total tubulin were quantified from logistics curve based on dilution series using the mouse hippocampus tissue extract, and the amount of the acetylated tubulin relative to the total tubulin was calculated, and evaluated as an relative tubulin acetylation level. […] After F test for vehicle group and drug group, the significant difference between the two groups was analyzed by Student t-test or Welch test (indicated as *p<0.05, **p<0.01, n.s.: not significant). […]

tauopathy mouse model = settings: cited from earlier work

inhibition at 10 µM (HDAC6 enzyme) [%] | Structure (SMILES) | also measured
101 | O=C1c2cc(-c3nnc(C(F)F)o3)ccc2CN1[C@H](c1ccccn1)[C@@H](O)c1ccccn1 [Example 1, 6-[5-(difluoromethyl)-1,3,4-oxadiazol-2-yl]-2-[(1R,2R)-2-hydroxy-1,2-di(pyridin-2-yl)ethyl]-2,3-dihydro-1H-isoindol-1-one] | cognitive improvement action (novelty discrimination, relative exploration time) [1]: cognitive improvement action; relative tubulin acetylation level (acetylated tubulin relative to total tubulin) [2]: increase in significant tubulin acetylation level; also recorded: increase in acetylated tubulin
100 | O=C1c2cc(-c3nnc(C(F)F)o3)ccc2CN1[C@H](C1CC1)[C@@H](O)c1ccc(F)cn1 [Example 57, 2-[(1R,2R)-1-cyclopropyl-2-(5-fluoropyridin-2-yl)-2-hydroxyethyl]-6-[5-(difluoromethyl)-1,3,4-oxadiazol-2-yl]-2,3-dihydro-1H-isoindol-1-one] | 
100 | O=C1c2cc(-c3nnc(C(F)F)o3)ccc2CN1[C@H](C1CC1)[C@@H](O)c1ccc(F)nc1 [Example 63, 2-[(1R,2S)-1-cyclopropyl-2-(6-fluoropyridin-3-yl)-2-hydroxyethyl]-6-[5-(difluoromethyl)-1,3,4-oxadiazol-2-yl]-2,3-dihydro-1H-isoindol-1-one] | 
100 | O=C1c2cc(-c3nnc(C(F)F)o3)ccc2CN1[C@H](C1CCOCC1)[C@@H](O)c1cccc(F)c1 [Example 64, 6-[5-(difluoromethyl)-1,3,4-oxadiazol-2-yl]-2-[(1R,2S)-2-(3-fluorophenyl)-2-hydroxy-1-(oxan-4-yl)ethyl]-2,3-dihydro-1H-isoindol-1-one] | 
100 | O=C1c2cc(-c3nnc(C(F)F)o3)ccc2CN1[C@H](C1CCOCC1)[C@H](O)c1cccc(F)c1 [Example 149, 6-[5-(difluoromethyl)-1,3,4-oxadiazol-2-yl]-2-[(1R,2R)-2-(3-fluorophenyl)-2-hydroxy-1-(oxan-4-yl)ethyl]-2,3-dihydro-1H-isoindol-1-one] | 

Further lines, the compound ahead of its results:

Structure (SMILES) | inhibition at 10 µM (HDAC6 enzyme) [%] | also measured
O=C1c2cc(-c3nnc(C(F)F)o3)ccc2CN1[C@H](c1ccccn1)[C@@H](O)c1ccc(F)cn1 [Example 3, 6-[5-(difluoromethyl)-1,3,4-oxadiazol-2-yl]-2-[(1R,2R)-2-(5-fluoropyridin-2-yl)-2-hydroxy-1-(pyridin-2-yl)ethyl]-2,3-dihydro-1H-isoindol-1-one] | 101 | cognitive improvement action (novelty discrimination, relative exploration time) [1]: cognitive improvement action; relative tubulin acetylation level (acetylated tubulin relative to total tubulin) [2]: increase in significant tubulin acetylation level; also recorded: increase in acetylated tubulin
O=C1c2cc(-c3nnc(C(F)F)o3)ccc2CN1[C@H](c1ccc(F)cn1)[C@@H](O)c1ccc(F)cn1 [Example 5, 2-[(1R,2R)-1,2-bis(5-fluoropyridin-2-yl)-2-hydroxyethyl]-6-[5-(difluoromethyl)-1,3,4-oxadiazol-2-yl]-2,3-dihydro-1H-isoindol-1-one] |  | HDAC6 inhibitory rate (%) (10 μM) (HDAC6 enzyme; 10 µM): 99%; relative tubulin acetylation level (acetylated tubulin relative to total tubulin) [2]: increase in significant tubulin acetylation level; also recorded: increase in acetylated tubulin
O=C1c2cc(-c3nnc(C(F)F)o3)ccc2CN1[C@H](C1CC1)[C@@H](O)c1ccccn1 [Example 38, 2-[(1R,2R)-1-cyclopropyl-2-hydroxy-2-(pyridin-2-yl)ethyl]-6-[5-(difluoromethyl)-1,3,4-oxadiazol-2-yl]-2,3-dihydro-1H-isoindol-1-one] | 100 | 
O=C1c2cc(-c3nnc(C(F)F)o3)ccc2CN1[C@H](C1CCOCC1)[C@@H](O)c1ccc(F)cc1 [Example 72, 6-[5-(difluoromethyl)-1,3,4-oxadiazol-2-yl]-2-[(1R,2S)-2-(4-fluorophenyl)-2-hydroxy-1-(oxan-4-yl)ethyl]-2,3-dihydro-1H-isoindol-1-one] | 100 | 
O=C1c2cc(-c3nnc(C(F)F)o3)ccc2CN1[C@H](C1CC1)[C@H](O)c1ccc(F)cc1 [Example 137, 2-[(1R,2R)-1-cyclopropyl-2-(4-fluorophenyl)-2-hydroxyethyl]-6-[5-(difluoromethyl)-1,3,4-oxadiazol-2-yl]-2,3-dihydro-1H-isoindol-1-one] | 100 | 
O=C1c2cc(-c3nnc(C(F)F)o3)ccc2CN1[C@H](C1CCOCC1)[C@H](O)c1ccc(F)cc1 [Example 148, 6-[5-(difluoromethyl)-1,3,4-oxadiazol-2-yl]-2-[(1R,2R)-2-(4-fluorophenyl)-2-hydroxy-1-(oxan-4-yl)ethyl]-2,3-dihydro-1H-isoindol-1-one] | 101 | 
O=C1c2cc(-c3nnc(C(F)F)o3)ccc2CN1[C@H](C1CC1)[C@H](O)c1ccc(F)cn1 [Example 150, 2-[(1R,2S)-1-cyclopropyl-2-(5-fluoropyridin-2-yl)-2-hydroxyethyl]-6-[5-(difluoromethyl)-1,3,4-oxadiazol-2-yl]-2,3-dihydro-1H-isoindol-1-one] | 99 | 
CN1CCc2c(c3ccccc3n2Cc2ccc(C(=O)NO)cc2)C1 [Tubastatin A] |  | acetylation of tubulin (tauopathy mouse model): increases acetylation of tubulin; therapeutic effectiveness (tauopathy mouse model): shows therapeutic effectiveness
